Values of other authors as cited in patent publication US10722456B2, “Oral composition of celecoxib for treatment of pain” (Dr. Reddy's Laboratories Ltd., priority 2016, dated 2020).

Conditions: oral administration

Cc1ccc(-c2cc(C(F)(F)F)nn2-c2ccc(S(N)(=O)=O)cc2)cc1 [Celecoxib, 4-[5-(4-methylphenyl)—3-(trifluoromethyl)-1H-pyrazol-1-yl] benzenesulfonamide]
time for peak plasma concentrations to be achieved: approximately 3.0 hours
